From US11129867B2, “Method of treating cancer cells” (priority 2017, dated 2021) come the findings set out here.

Read-outs that look alike come from different tables or passages of the source. Where no end group is shown, it is not given here.

The subject of data set [1] is Ca922 cells. Nature of the data set: WST-8 cell viability assay, Ca922. It counts as cell-based, human. The protocol: (§1) Human oral squamous cell carcinoma (OSCC) cell lines, Ca922, OSC20, OECM-1, OC3, CGHNC9, HSC3, plus A549, MDA-MB-231, MCF7, Huh7, HeLa-Kyoto, Detroit 562, H520, H2170, and 293T cells were used in this study. Ca922, CGHNC9, MDA-MB-231, MCF7, Huh7, HeLa-Kyoto, Detroit 562, and 293T cells were all cultured in high-glucose Dulbecco's Modified Eagle Medium (DMEM). OSC20 and HSC3 cells were cultured in Dulbecco's Modified of Eagle's Medium/Ham's F-12 50/50 Mix (1:1). OECM-1, A549, H520, and H2170 cells were grown in RPMI-1640 medium. All culture media were supplemented with 10% fetal bovine serum (FBS) and 1% penicillin-streptomycin. OC3 cells were cultured in 1:1 DMEM/KSFM (keratinocyte serum-free medium) with supplied supplement of Bovine pituitary extract (BPE) and epidermal growth factor (EGF) followed by instruction. All the cells in this study were maintained at 37° C. in humidified atmosphere containing 5% CO2.
(§2) WST-8 [2-(2-methoxy-4-nitrophenyl)-3-(4-nitrophenyl)-5-(2,4-disulfophenyl)-2H-tetrazolium, monosodium salt] cell viability assay
(§3) Cells were seeded into 96 well plate and incubated at 37° C. overnight. Endpoint measures of TMR-GBP or drugs were performed by water soluble tetrazolium salt (WST-8)-based colorimetric assay in triplicate which measures the metabolic conversion of WST-8 into formazan by mitochondrial dehydrogenases present in viable cells. The amount of formazan produced is proportional to the number of live cells and is expressed as cellular viability. When time was up, media were removed and supplemented with WST-8 cell viability reagent-contained cell culture medium (1:10) and incubated at 37° C. for 2 hours. Besides, three wells with WST-8-dissolved medium only (without cells) were reserved as a background control. Cell viability was measured at the absorbance of 450/655 nm wavelength by ELISA reader.

Data set [2] relates to Ca922 cells. Nature of the data set: Annexin V staining with flow cytometry. It counts as cell-based, human. The following applies: Ca922, 1% H2O2 positive control, FIG. 6A. As for the experimental part:
[…] Diluted 10× Binding Buffer to 1× using distilled water. Washed cells once in PBS, then once in 1× Binding Buffer. Resuspended cells in 1× Binding Buffer at 1-5×10^6/mL. Next, added 5 μL of fluorochrome-conjugated Annexin V to 100 μL of the cell suspension. Sample was incubated 10-15 minutes at room temperature. Afterwards, washed cells in 1× Binding Buffer and resuspend in 200 μL of 1× Binding Buffer. Analyzed by flow cytometry within 4 hours, storing at 2-8° C. in the dark.
In general terms: Flow cytometry measures light scatter and fluorescence of single cells or particles in a stream.

A further data set concerns phospho-γH2Ax. Description: Immunofluorescence staining of phospho-γH2Ax (DNA damage). Type of data set: cell-based, human. As to conditions: Ca922, H2O2 positive control, FIG. 10A. The protocol:
Representative images showing DAPI-labelled nucleus (shown in blue) co-stained with phospho-γH2Ax (green). Ca922 cells were treated with 25 μM TMR-GBP for 12 or 24 hours followed by immunofluorescence staining. Foci in the nucleus indicated damaged DNA. Scale bar indicates 10 μm.
At least 20 cells were counted in each category. Bars indicate standard deviations from three independent experiments.
Immunofluorescence Staining
Cells grown on coverslips were washed with 1×PBS and fixed by PTEMF buffer (20 mM PIPES pH 6.8, 0.2% Triton X-100, 10 mM EGTA, 1 mM MgCl2, and 4% formaldehyde) or 4% paraformaldehyde for 10 minutes at room temperature. Then, fixation buffer was replaced with 1×PBST and the cells were washed with 1×PBST for another 10 minutes at room temperature. Coverslips were washed with 1×PBST twice gently and incubated with primary antibodies at room temperature for 1 hour. Next, washed with PBST for three times (2, 2, 5 minutes). Afterwards, coverslips were cultured in Alex Fluor-conjugated secondary antibodies and DAPI at room temperature for 30 minutes, washed three times (2, 2, 5 minutes), rinsed with ddH2O and mounted with mounting medium. Antibodies concentration used in this analysis is 1:1000 dilution. Images were acquired with specific fluorescence wavelength by Leica DMI6000 inverted microscope equipped with HCX PL FL 100λ/NA1.40 objective and EMCCD camera. All images were analyzed by MetaMorph software.

The subject of data set [3] is Ca922 cells. Description: Time-lapse live cell imaging, Ca922. The following applies: Ca922, 12.5 μM, exposed to 532 nm, 488 nm, 405 nm and brightfield, after 20 hours, FIG. 2. It counts as cell-based. The protocol: Ca922 cells were grown on 35 mm culture dishes overnight then treated with 1% DMSO, 12.5 μM TMR, GBP, TMR-GBP respectively and monitored by time-lapse live cell microscope. Cells were exposed to indicate wavelength once every 4 hours for 100 ms and continuously for 20 hours. At least 300 cells in five different fields were counted for each experiment using microcopy that captured images under 10× magnification. Mortality rate was evaluated by counting the percentage of dead cells in the whole population. Standard deviations of three independent experiments were indicated as bars.
Time-Lapse Live Cell Imaging
In order to monitor cell morphology and the stability of TMR-GBP, cells were incubated in 35 mm dish or 4 well dish at 37° C. overnight. Replaced the culture medium with CO2-independent medium with supplement of 10% fetal bovine serum (FBS) and 1% penicillin-streptomycin, cells were treated with reagent (TMR, GBP, TMR-GBP) for the time according to the experiment and subjected to time-lapse live cell imaging. Cells were maintained on the microscope stage incubator at 37° C. Multiple-positional time-lapse imaging was performed using an automated Leica DMI6000 inverted microscope equipped with an HCX PL FL 20λ/NA0.4 objective and Andor Luca R EMCCD camera. Images of cells were taken at different interval time and analyzed by MetaMorph software.

Another data set deals with H520. Nature of the data set: WST-8 cell viability assay, H520. It counts as cell-based. The protocol:
as §1, §2, §3
In general terms: Tetrazolium assays rely on reduction of a dye to a coloured formazan, in cell work by metabolically active cells.

The next data set relates to Detroit 562. Nature of the data set: WST-8 cell viability assay, Detroit 562. It counts as cell-based. As for the experimental part:
as §1, §2, §3

Another data set relates to H2170. Nature of the data set: WST-8 cell viability assay, H2170. It counts as cell-based. The protocol: as §1, §2, §3

With `O=C(O)CN(CCOCCOCCN(CC(=O)O)CC(=O)O)CC(=O)O` [EGTA, ethylene glycol tetraacetic acid, reference compound], the “effect on cell viability” value in the data set on Ca922 cells [1] (Ca922, 1 mM EGTA, 50 hours, FIG. 8A) was “no significant effect on cell viability”.

On to `OO` [H2O2, reference compound], for which, in the data set with Ca922 cells [2], the “apoptosis by Annexin-V-FITC labeling” value is recorded as “induces apoptosis in Ca922”. In the data set on phospho-γH2Ax, the “phospho-γH2Ax foci in the nucleus (DNA damage)” value is “many foci were observed accumulating in the nucleus”.

`CN(C)c1ccc2c(-c3ccccc3C(=O)[O-])c3ccc(N(C)C)cc3[o+]c2c1` [TMR, Tetramethylrhodamine, reference compound]: the “cytotoxicity under light stress (mortality)” value in the data set with Ca922 cells [3] was “more sensitive to 532 nm light stress and displayed cytotoxic effects”. Also, the “cytotoxicity (cell viability)” value with H520 (H520 (lung cancer), different concentrations, 48 hours, FIG. 5) is “neither TMR-GBPR3QW4R nor TMR alone induce cytotoxicity”; with Ca922 cells [1] (Ca922 (oral cancer), different concentrations, 48 hours, FIG. 5), “neither TMR-GBPR3QW4R nor TMR alone induce cytotoxicity”; in the data set with Detroit 562 (Detroit 562 (pharynx cancer), different concentrations, 48 hours, FIG. 5), “neither TMR-GBPR3QW4R nor TMR alone induce cytotoxicity”; in the data set on H2170 (H2170 (lung cancer), different concentrations, 48 hours, FIG. 5), “neither TMR-GBPR3QW4R nor TMR alone induce cytotoxicity”.

As for “TMR-GBPR3QW4R: TMR conjugate of peptide GBPR3QW4R, NYQRRCKNQN (SEQ ID NO. 4) (not fully specified (N-terminus); also: TMR conjugate, site not given here; listed as Homo sapiens)”, the “cytotoxicity (cell viability)” value in the data set on H520, with Ca922 cells [1], in the data set with Detroit 562 and with H2170 was “neither TMR-GBPR3QW4R nor TMR alone induce cytotoxicity” throughout.

With “TMR-GBPW4R: TMR conjugate of peptide GBPW4R, NYRRRCKNQN (SEQ ID NO. 3) (not fully specified (N-terminus); also: TMR conjugate, site not given here; listed as Homo sapiens)”, the “cytotoxicity (cell viability)” value with H520, in the data set with Detroit 562 and in the data set on H2170 was “could induce cytotoxicity” each time.
